Measurements as given in article PMC12313019, “Fibrotic lung ECM upregulates SDC4/integrin-αvβ1 interaction and the interfering peptide SDC4_87-131 and its derivative peptides alleviate pulmonary fibrosis” (Regenerative Biomaterials, 2025).

System: BLM-induced PF, C57BL/6J mice
Assay: BLM-induced PF in mice: HE, Masson, hydroxyproline
Type: in vivo, mouse
Experimental: C57BL/6J mice (male, 8-to 9-week old, 18–22 g, SPF grade) were purchased from Shanghai Slake Laboratory Animal Co., Ltd. [SCXK (Hu) 2022-0004, Shanghai, China]. […] The mice were housed in an SPF environment with 22–25°C, 46–65% humidity and 12 h/12 h light-dark alternation, with free access to water and food. This animal experiment was approved by the Experimental Animal Welfare Ethics Committee of Fujian Medical University (No. FJMU IACUC 2021-0465), and was carried out in accordance with the National Research Council's Guide for the Care and Use of Laboratory Animals.
After the mice were anesthetized (1% sodium pentobarbital 50 mg/kg was injected intraperitoneally), 150 μL of bleomycin (BLM, 5 mg/mL, BIO-000001) was inhaled into the lungs of the mice by tracheal inhalation instillation. One day later, the mice were randomly divided into model and drug treatment groups, and the mice in the control group were only subjected to saline inhalation.
Based on the dosage of SDC2 fragment peptide and our experimental results (Supplementary Figure S10A and B), the dosage schedule of SDC4_87-131 was set as follows: starting on the third day after BLM inhalation, 1 mg/kg, administered via trachea infusion once every three days. And Anti-SDC4(93-121) 8 mg/kg was administered on the third and tenth days (reference dosage).
Lung tissue samples were paraffin-embedded, then sliced and dewaxed, and HE and Masson staining were performed respectively. After dehydration and sealing, images were collected and analyzed using a microscope.
100 mg of lung tissue was accurately weighed and processed according to the instructions of the hydroxyproline assay kit (Nanjing Jiancheng, Nanjing, China), and the absorbance was measured at a wavelength of 550 nm. The data were expressed as micrograms (µg) of hydroxyproline per mg of dry lung tissue.

Ac-NHIPERAGSGSQVPTEPKKLEENEVIPKRISPVEESEDVSNKVSM-NH2 [SDC4_87-131]
alveolar structural disorders and collagen deposition (SDC4_87-131 1 mg/kg ITD q3d, C8 10 mg/kg IP qd, Anti-SDC4(93-121) 8 mg/kg ITD day 3 and 10, to day 21): could alleviate alveolar structural disorders and collagen deposition | difference between treatments (HE, Masson, hydroxyproline) (SDC4_87-131, Anti-SDC4(93-121) and C8 compared): no significant difference
